In PMC6891695, “Evaluation of Antifouling Potential and Ecotoxicity of Secondary Metabolites Derived from Red Algae of the Genus Laurencia” (Marine Drugs, 2019):

Key:
A. salina nauplii = experiment: Artemia salina toxicity assay; assay type: in vivo; details: 24 and 48 h
Method in brief: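 Instar I nauplii, hatched over 24 h in artificial seawater at 25 °C, exposed ten per well to compounds added in methanol for 48 h in the dark at 25 °C. Mortality scored as no appendage movement within 10 s; IC50/EC50 from normalized-response curve fits, three experiments with four replicates.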

A. amphitrite cyprids = experiment: Substrate exploration analysis: SIPC deposition by cyprids (anti-SIPC Western blot on wells); assay type: in vivo, Amphibalanus amphitrite; details: for effect on deposition of SIPC protein on the surface of the bioassay plates: concentrations at the EC50 values, p > 0.05; for effect on deposition of SIPC protein on the surface of the bioassay plates / effect on adjusted integrated density of anti-SIPC immunoreactive signals: 24 h; for effect on adjusted integrated density of anti-SIPC immunoreactive signals: indicated concentrations, unpaired two-tailed t-test with Welch's correction
Protocol: To test the substrate exploratory behaviour of A. amphitrite cyprids in the presence of selected metabolites, settlement bioassays were conducted by adding 10 cyprids into individual wells of a 24-well polystyrene sterile microplate (Orange Scientific, Braine l’Alleud, Belgium) containing 2 mL of ASW (25‰). These experiments were repeated twice with four replicates per experiment. Plates were covered and sealed with Parafilm® to avoid evaporation and incubated at 25 °C away from any light source for 24 h. Then, the 2 mL of ASW was aspirated from each well and all settled and non-settled cyprids were counted and removed. Wells were then blocked by incubation with 5% BSA in TBST (25 mM Tris-HCl, pH 7.5, 150 mM NaCl, 0.1% Tween 20) for 1 h at room temperature. Wells were then incubated for 1 h at room temperature with the mouse anti-SIPC monoclonal antibody at 1:100 dilution of the cloned cell line culture supernatant in TBST with 5% BSA, washed with TBST (3 × 5 min) and incubated with an HRP-conjugated anti-mouse antibody (1:1000, Cell Signaling Technology, Danvers, MA, USA) for 1 h at room temperature. Wells were then washed with TBST (3 × 5 min) and immunostaining was detected using the 20 × LumiGLO® chemiluminescence kit (Cell Signaling Technology, Danvers, MA, USA) in a Bio-Rad ChemiDoc XRS + Gel Photo Documentation System. To measure the relative intensity of immunoreactive spots on this format of Western blots, images were analyzed with ImageJ 1.52k (NIH, Bethesda, MD, USA), and the adjusted integrated density of the signals was calculated using the formula: Adjusted integrated density (IntDen) = IntDen of experimental region of interest (ROI)—(mean of background ROI × area of experimental ROI). Data were exported and statistically analyzed with GraphPad Prism v.6 using unpaired, two-tailed t-tests at p = 0.05, with Welch’s correction.

Row | Compound | toxicity against A. salina nauplii (in words) (A. salina nauplii) | effect on deposition of SIPC by the cyprids relative to control (ASW) (A. amphitrite cyprids; 10 μM) | effect on deposition of SIPC protein on the surface of the bioassay plates (A. amphitrite cyprids) | effect on adjusted integrated density of anti-SIPC immunoreactive signals (A. amphitrite cyprids)
1 | CC(C)[C@@H]1CC=C[C@H]2[C@H]3[C@](C)(CC[C@]12CBr)[C@@H](Br)CC[C@@]3(C)O [Bromosphaerol, reference compound] | did not show any toxicity | did not affect deposition of SIPC | no statistically significant effect | none of the two tested compounds (p > 0.05) affected
2 | CC1=C2CC[C@@](C)(Cl)[C@@H](Br)C[C@]2(C)[C@@H](C)[C@@H](Br)[C@@H]1O [Compound 9, perforenol] | – | – | no statistically significant effect | none of the two tested compounds (p > 0.05) affected
